These results are taken from patent publication US7342027B2 (Yuhan Corporation, priority 2002, dated 2008).

Counter-ions that a name gives are not always drawn.

As usually defined, the IC50 is the midpoint of a concentration-inhibition curve.

The target of this experiment is T1, Recombinant human cathepsin K (Homo sapiens, UniProt P43235).
T1 construct: made in house
T1 sequence (P43235 115-329): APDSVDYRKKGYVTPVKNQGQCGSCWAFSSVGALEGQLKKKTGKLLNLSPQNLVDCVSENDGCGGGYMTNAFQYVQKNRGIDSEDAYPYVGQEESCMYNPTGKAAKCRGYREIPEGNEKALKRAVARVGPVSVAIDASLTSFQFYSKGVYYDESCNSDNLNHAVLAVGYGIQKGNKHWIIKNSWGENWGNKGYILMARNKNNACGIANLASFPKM
Kind of experiment: Inhibition of cathepsin K activity (Z-Phe-Arg-AMC fluorescence assay). Type of experiment: biochemical. As to conditions: 25 uM Z-Phe-Arg-AMC, pH 5.5, 1 hour at 37° C. The procedure:
Test 1: Inhibition of Cathepsin K Activity
Recombinant human cathepsin K was prepared in accordance with Biol, Pharm. Bull, 19(8), 1026-1031 (1996) and J. Biol. Chem. 271, 2126-2132 (1996). Stock solutions of 2.5 mM Z-Phe-Arg-AMC (BACHEM, 1-1160) and all inhibitors were prepared in dimethyl sulfoxide. In vitro assays for cathepsin K were conducted with 25 uM Z-Phe-Arg-AMC as a substrate at pH 5.5 in 100 mM Na acetate buffer containing 20 mM cysteine and 5 mM EDTA in the presence of 2% final concentration of DMSO. Reaction was initiated by the addition of enzyme to samples, which were then incubated for 1 hour at 37° C. The fluorescence was monitored at 460 nm (excitation wavelength 360 nm) using fluorescence plate reader.
The concentrations of the test compounds, which inhibit 50% of cathepsin K activity, are represented as IC50 in Table 1.
Turning to `CS(=O)(=O)c1ccccc1N1CCC(NC(=O)C2(NC(=O)c3ccc(OCCN4CCOCC4)cc3)CCCCC2)C(=O)C1` (stereo not drawn) [Example 158, 4-[N-[1-[N-(4-(2-morpholinethoxy)benzoyl)amino]cyclohexanecarbonyl]amino]-1-(2-methanesulfonylphenyl)piperidin-3-one hydrochloride], the concentration for half-maximal inhibition (IC50) stood at 3.15 nM. Turning to `O=C(NC1(C(=O)NC2CCN(c3ccc(F)cc3N3CCCC3=O)CC2=O)CCCCC1)c1ccc(OCCN2CCOCC2)cc1` (stereo not drawn) [Example 170, 4-[N-[1-[N-(4-(2-morpholinethoxy)benzoyl)amino]cyclohexanecarbonyl]amino]-1-[4-fluoro-2-(pyrrolidin-2-one-1-yl)phenyl]piperidin-3-one], the IC50 stood at 1.69 nM. In the case of `CC(C)C(=O)Nc1ccccc1N1CCC(NC(=O)C2(NC(=O)c3cc4ccccc4o3)CCCCC2)C(=O)C1` (stereo not drawn) [Example 51, 4-[N-[1-[N-(benzofuran-2-ylcarbonyl)amino]cyclohexanecarbonyl]amino]-1-[2-[N-(isobutyryl)amino]phenyl]piperidin-3-one] it was 4.11 nM; in that of `O=C(NC1(C(=O)NC2CCN(c3ccccc3[N+](=O)[O-])CC2=O)CCCCC1)c1ccc2ccccc2n1` (stereo not drawn) [Example 138, 4-[N-[1-[N-(quinolin-2-ylcarbonyl)amino]cyclohexanecarbonyl]amino]-1-(2-nitrophenyl)piperidin-3-one], 4.82 nM. Take `CS(=O)(=O)c1ccccc1N1CCC(NC(=O)C2(NC(=O)c3ccc(OCCN4CCOCC4)cc3)CCCCC2)C(=O)C1` (stereo not drawn) [Example 155, 4-[N-[1-[N-(4-(2-morpholinethoxy)benzoyl)amino]cyclohexanecarbonyl]amino]-1-(2-methanesulfonylphenyl)piperidin-3-one]: the IC50 stood at 1.29 nM. For `O=C(NC1(C(=O)NC2CCN(c3ccccc3Br)CC2=O)CCCCC1)c1cc2ccccc2o1` (stereo not drawn) [Example 35, 4-[N-[1-[N-(benzofuran-2-ylcarbonyl)amino]cyclohexanecarbonyl]amino]-1-(2-bromophenyl)piperidin-3-one], the half-maximal inhibitory concentration (IC50) came out at 2.35 nM. `COC(=O)Nc1ccccc1N1CCC(NC(=O)C2(NC(=O)c3cc4ccccc4o3)CCCCC2)C(=O)C1` (stereo not drawn) [Example 49, 4-[N-[1-[N-(benzofuran-2-ylcarbonyl)amino]cyclohexanecarbonyl]amino]-1-[2-[N-(methoxycarbonyl)amino]phenyl]piperidin-3-one]: the IC50 was 0.45 nM. In the case of `C[S+]([O-])c1ccccc1N1CCC(NC(=O)C2(NC(=O)c3cc4ccccc4o3)CCCCC2)C(=O)C1` (stereo not drawn) [Example 68], the IC50 is 3.12 nM. In the case of `Cc1cc(C(=O)NC2(C(=O)NC3CCN(c4ccccc4S(C)(=O)=O)CC3=O)CCCCC2)no1` (stereo not drawn) [Example 106, 4-[N-[1-[N-(5-methyl-isoxazol-3-ylcarbonyl)amino]cyclohexanecarbonyl]amino]-1-(2-methanesulfonylphenyl)piperidin-3-one] it was 19.9 nM; in that of `O=C(NC1(C(=O)NC2CCN(c3ccccc3N3CCCCC3=O)CC2=O)CCCCC1)c1cc2ccccc2o1` (stereo not drawn) [Example 45, 4-[N-[1-[N-(benzofuran-2-ylcarbonyl)amino]cyclohexanecarbonyl]amino]-1-[2-(piperidin-2-one-1-yl)phenyl]piperidin-3-one], 6.8 nM; in that of `O=C(NC1(C(=O)NC2CCN(c3ccc(F)cc3-n3cccc3)CC2=O)CCCCC1)c1ccco1` (stereo not drawn) [Example 99, 4-[N-[1-[N-(furan-2-ylcarbonyl)amino]cyclohexanecarbonyl]amino]-1-[4-fluoro-2-(pyrrol-1-yl)phenyl]piperidin-3-one], 4.41 nM. In the case of `CSc1cc(F)ccc1N1CCC(NC(=O)C2(NC(=O)c3ccco3)CCCCC2)C(=O)C1` (stereo not drawn) [Example 85, 4-[N-[1-[N-(furan-2-ylcarbonyl)amino]cyclohexanecarbonyl]amino]-1-(4-fluoro-2-thiomethoxyphenyl)piperidin-3-one] it was 10.4 nM. In the case of `CCN(CC)c1ccc(C(=O)NC2(C(=O)NC3CCN(c4ccc(F)cc4S(C)(=O)=O)CC3=O)CCCCC2)cc1` (stereo not drawn) [Example 174, 4-[N-[1-[N-(4-(diethylamino)benzoyl)amino]cyclohexanecarbonyl]amino]-1-(4-fluoro-2-methanesulfonylphenyl)piperidin-3-one hydrochloride] it was 1 nM. For the compound `CC(C)(C)OC(=O)c1ccccc1N1CCC(NC(=O)C2(NC(=O)c3cc4ccccc4o3)CCCCC2)C(=O)C1` (stereo not drawn) [Example 37, 4-[N-[1-[N-(benzofuran-2-ylcarbonyl)amino]cyclohexanecarbonyl]amino]-1-[2-(tert-butoxycarbonyl)phenyl]piperidin-3-one], the IC50 was found to be 3.78 nM. In the case of `Cc1c(C(=O)NC2(C(=O)NC3CCN(c4cc(F)ccc4C(F)(F)F)CC3=O)CCCCC2)oc2ccccc12` (stereo not drawn) [Example 134, 4-[N-[1-[N-(3-methyl-benzofuran-2-ylcarbonyl)amino]cyclohexanecarbonyl]amino]-1-(5-fluoro-2-trifluoromethylphenyl)piperidin-3-one] it was 6.09 nM. In the case of `CSc1ccccc1N1CCC(NC(=O)C2(NC(=O)c3cc4ccccc4o3)CCCCC2)C(=O)C1` (stereo not drawn) [Example 36, 4-[N-[1-[N-(benzofuran-2-ylcarbonyl)amino]cyclohexanecarbonyl]amino]-1-(2-methylthiophenyl)piperidin-3-one] it was 2.13 nM; in that of `CCS(=O)(=O)c1ccccc1N1CCC(NC(=O)C2(NC(=O)c3cc(C)on3)CCCCC2)C(=O)C1` (stereo not drawn) [Example 107, 4-[N-[1-[N-(5-methyl-isoxazol-3-ylcarbonyl)amino]cyclohexanecarbonyl]amino]-1-(2-ethanesulfonylphenyl)piperidin-3-one], 8.07 nM. Regarding `N#Cc1ccc(N2CCC(NC(=O)C3(NC(=O)c4cc5ccccc5o4)CCCCC3)C(=O)C2)cc1` (stereo not drawn) [Example 7, 4-[N-[1-[N-(benzofuran-2-ylcarbonyl)amino]cyclohexanecarbonyl]amino]-1-(4-cyanophenyl)piperidin-3-one], the IC50 came out at 6.24 nM.
